Experimental data as given in US20240009266A1, “PHARMACEUTICAL COMBINATIONS COMPRISING A PEPTIDE CXCR4 INHIBITOR AND A TAXANE FOR TREATING CANCER” (POLYPHOR AG, priority 2020, published 2024).

Legend:
[1] = test system: breast cancer PDX Ma15169; conditions: for tumor growth inhibition / therapeutic effect (in words): Ma15169 PDX, humanized NOG-EXL mice, treatment day 154-182; for T/C value (treated-to-control tumor volume) at the last day of the study: day 183, Paclitaxel 10 mg/kg i.v. twice weekly, treatment from day 154, 29 days; for response rating according to RECIST criteria: from T/C at day 183 (last day of the study)
Description: The study was designed to determine the response of the breast cancer PDX Ma15169 to treatment with Paclitaxel single agent, Balixafortide single agent and the combination of both in humanized NOG-EXL mice. Humanized NOG-EXL mice bearing the breast cancer PDX Ma15169 were treated with Paclitaxel and Balixafortide according to Table 1. Ma15169 is a patient derived xenograft (PDX) that was from a patient with an invasive ductal carcinoma (ypT1a ypN1a R0 G3 L1 V1). The patient tumour was ER/PR as well as Her-2 negative. The tumour material was expanded in 9 donor mice (NOG, Taconic; https://www.taconic.com/mouse-model/ciea-nog-mouse) and fragments of about 10 mm3 were each implanted subcutaneously into the flank of 50 humanized NOG-EXL mice; at this time, the passage number of Ma15169 was #4.
Female NOG-EXL mice with an age of about 4 weeks were used for the constitution of human immune cells. 24 hours before CD34+ cell inoculation mice were irradiated with 1Gy. Human CD34+ cells were isolated from fresh cord blood within the laboratories of EPO (Experimental Pharmacology & Oncology Berlin-Buch GmbH, Berlin-Buch, Germany) and preserved in liquid nitrogen until use. For the study MV16883 a pool of 5 different donors (CB AG 101, CB AG 97, CB KR 104, CB AG 106, CB AG 107) prepared. After thawing the cells were washed with PBS, pooled and washed again followed by Trypan blue staining and cell counting using Neubauer chamber. A total of 5×10^4 vital cells were resuspended in 200 μl PBS and injected intravenously into the tail vain of all mice.
Determination of human immune cells by FACS was performed at days 46, 84 and 115 after cell inoculation (leucocytes CD45+, B cells CD19+, T cells CD3+, NK cells CD56+/CD16+ and monocytes CD14+; Human Immunophenotyping 8-color-Kit (Miltenyi)). The mice were weighed weekly and monitored for general health two times weekly.
The PDX Ma15169 is maintained by EPO (Experimental Pharmacology & Oncology Berlin-Buch GmbH, Berlin-Buch, Germany) as in vivo passage; the passage number for this study was #4. Donor mice (female NOG; Taconic) with tumors of about 1 cm3 were used for the preparation of this study MV16883.
After removal of the tumor tissue from donor mice, the tumors were cut into fragments (2-3 mm diameter—approximately 10 mm3) and placed in cooled RPMI 1640 culture medium until s.c. implantation within 30 minutes. The humanized NOG-EXL mice were anaesthetized with Etomidate and received a small incision in the skin of the left flank. The tumor fragments (one fragment/mouse) were implanted with tweezers and the incision closed with a suture clip (#310417, Covetrus GmbH). The clips were removed after seven days and mice controlled two times weekly by means of palpation. The implantation of tumor fragments was performed 122 days after the inoculation of CD34+ cells.
Tumor bearing mice were stratified into 4 treatment groups according to their tumor volumes at day 154 post CD34+ cell inoculation (32 days after tumor implantation). […] During stratification the animals were individually marked by earmarks.
Paclitaxel (Taxomedac™ comprising paclictaxel, citric acid, ethanol and PEG (30-50) castor oil) was given i.v. at a dose of 10 mg/kg twice weekly. Balixafortide was given s.c. at a dose of 20 mg/kg once daily for the first 5 days and twice daily for 5 days followed by treatment breaks of 2 days until the end of treatment period (FIG. 1). Total treatment duration was 29 days. Successful engraftment of human CD34+ cells was checked by flow cytometry (FACS).
Changes in the human immune cell population in blood were followed-up at the end of the study by FACS analysis.

[2] = test system: other potential target receptors; assay: In vitro receptor binding studies, other receptors
human CXCR4 receptor = human CXCR4 receptor (Homo sapiens, UniProt P61073); assay: In vitro receptor binding studies, human CXCR4 receptor
human CXCR4 receptor, sequence (P61073 whole entry): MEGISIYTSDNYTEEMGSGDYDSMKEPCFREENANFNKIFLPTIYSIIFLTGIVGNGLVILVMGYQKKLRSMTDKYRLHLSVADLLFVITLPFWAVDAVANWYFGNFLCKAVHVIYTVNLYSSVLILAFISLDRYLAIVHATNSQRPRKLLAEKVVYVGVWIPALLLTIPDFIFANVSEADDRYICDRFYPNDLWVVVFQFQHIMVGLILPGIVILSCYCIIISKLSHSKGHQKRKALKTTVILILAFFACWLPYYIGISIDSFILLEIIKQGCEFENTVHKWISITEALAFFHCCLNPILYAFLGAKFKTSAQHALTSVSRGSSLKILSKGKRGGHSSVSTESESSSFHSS

Row | Compound | tumor growth inhibition / therapeutic effect (in words) [1] | T/C value (treated-to-control tumor volume) at the last day of the study ([1]; Balixafortide 20 mg/kg s.c.) [%] | response rating according to RECIST criteria [1] | optimum T/C value ([1]; found at day 168, Balixafortide 20 mg/kg s.c., p>0.05) [%] | binding to other potential target receptors (in words) [2] | affinity for the human CXCR4 receptor (in words) (human CXCR4 receptor)
1 | CC(=O)O[C@H]1C(=O)[C@@]2(C)[C@H]([C@H](OC(=O)c3ccccc3)[C@]3(O)C[C@H](OC(=O)[C@H](O)[C@@H](NC(=O)c4ccccc4)c4ccccc4)C(C)=C1C3(C)C)[C@]1(OC(C)=O)CO[C@@H]1C[C@@H]2O [Paclitaxel, reference compound] | significant tumor growth inhibition | 42 | stable disease | – | – | –
2 | Cyclo(-Tyr-His-Ala-Cys-Ser-Ala-^DPro-Dab-Arg-Tyr-Cys-Tyr-Gln-Lys-^DPro-Pro-) having a disulfide bond between Cys^4 and Cys^11 [Balixafortide] | inhibited tumor growth marginally | 107 | progressive disease | 79 | general lack of significant binding | significant affinity
